Results from publication PMC7600679, “Benzoxazole-Based Metal Complexes to Reverse Multidrug Resistance in Bacteria” (Antibiotics, 2020).
Values after ≈ are worked out from the molar mass of the structure shown. Read-outs that look alike come from different tables or passages of the source.

Experiments:
E. coli AG100 [1] = assay: Real-time ethidium bromide accumulation (efflux pump inhibition, AcrAB-TolC); type: cell-based, Escherichia coli; conditions: compounds at ¼ MIC, EB 1 μg/mL, minute 30
Experimental: (§1) Since multidrug resistance EPs are very important factors contributing to multidrug resistance (MDR) in both Gram-positive and Gram-negative bacteria, the inhibition of these pumps could reverse the resistant phenotype and restore the activity of antibiotics. The effect of compounds on ethidium bromide (EB) accumulation was determined by the automated EB method. This assay was used to determine how much of the fluorescent dye and pump substrate EB was accumulated by the bacterial cells in the presence of the tested compounds. The real-time accumulation of EB was monitored for 30 min in both S. aureus and E. coli strains.
(§2) The accumulation of the efflux pump substrate EB was monitored by the automated EB method using a LightCycler real-time thermocycler (LightCycler 1.5, Roche, Indianapolis, IN, USA). An aliquot of an overnight culture of the S. aureus strains in TSB medium was inoculated into fresh TSB medium, and it was incubated until it reached an optical density (OD) of 0.6 at 600 nm. In the case of E. coli strains, the medium applied in the assay was LB broth; the preparation of the inoculum was similar to the one of S. aureus. The cells were washed with phosphate buffered saline (PBS; pH 7.4) and centrifuged at 13,000 × g for 3 min, the pellets were re-suspended in PBS (pH 7.4), and the OD was calibrated to 0.6 at 600 nm. The compounds were measured at ¼ MIC concentration (in double-concentrated form) to the EB solution in PBS. The final concentration of EB was determined according to the MIC and the fluorescent signal produced by this amount of EB. In the case of all strains, the concentration of EB was 1 μg/mL. Then, 10 μL of the EB solution plus the compound were pipetted into standard glass capillary tubes of 20 µL maximum volume (Roche, Indianapolis, USA), and 10 μL of bacterial culture (OD of 0.6 at 600 nm) were transferred to the capillaries. The capillaries containing the samples were placed into the carousel, and the fluorescence was monitored at the FL-2 channel in every minute on a real-time basis.
(§3) Based on the data obtained, the relative fluorescence index (RFI) of the last time point (minute 30) was determined as follows:RFI = (RFtreated − RFuntreated)/RFuntreated(1) where RFtreated is the relative fluorescence (RF) at the last time point of the EB retention curve in the presence of an inhibitor, and RFuntreated is the relative fluorescence at the last time point of the EB retention curve of the untreated control having the solvent control (DMSO).

S. aureus 272123 (MRSA) [2] = assay: Minimum inhibitory concentration (broth microdilution, CLSI); type: cell-based, Staphylococcus aureus; conditions: 18 h, visual inspection
Experimental: (§4) The compounds were further investigated against two Gram-positive strains, S. aureus ATCC 25923 (MSSA), used as the methicillin susceptible reference strain, and the methicillin- and ofloxacin-resistant S. aureus 272123 clinical isolate (MRSA), which was given by Prof. Dr. Leonard Amaral (Institute of Hygiene and Tropical Medicine, Lisbon, Portugal).
(§5) The minimum inhibitory concentrations (MICs) of compounds were determined in 96-well plates based on the Clinical and Laboratory Standard Institute guidelines (CLSI guidelines). The compounds were diluted in 100 μL of MHB. Then, 10^−4 dilution of an overnight bacterial culture in 100 μL of medium were added to each well, with the exception of the medium control wells.

[3] = test system: MRC-5 human embryonal lung fibroblast cell line; assay: Cytotoxicity assay (MTT); type: cell-based
Experimental: The MRC-5 human embryonic lung fibroblast cell line (ATCC CCL-171; provider: LGC Promochem, Teddington, UK) was used in the experiments. The cells were cultivated in Eagle’s Minimal Essential Medium (EMEM; Sigma–Aldrich, St. Louis, MO, USA), supplemented with 1% non-essential amino acid mixture, 10% heat-inactivated fetal bovine serum, 2 mM L-glutamine, 1 mM Na-pyruvate, nystatin, and a penicillin–streptomycin mixture in concentrations of 100 U/L and 10 mg/L, respectively. The supplementary components were obtained from Sigma–Aldrich, St. Louis, MO, USA. The cell culture was kept in a humidified atmosphere (5% CO2, 95% air) at 37 °C.
The activity of increasing concentrations of the compounds on cell growth was determined in 96-well flat-bottomed microtiter plates by two-fold serial dilutions of the benzoxazole derivatives. The adherent human embryonic lung fibroblast cells (10^4/well) was seeded in EMEM medium in 96-well microtiter plates for 4 h prior to the assay. The serial dilutions of the compounds were made in a separate plate, and then pipetted to the plates containing the MRC-5 cell line. Culture plates were incubated at 37 °C for 24 h; at the end of the incubation period, 20 μL of MTT (3-(4,5-dimethylthiazol-2-yl)-2,5-diphenyltetrazolium bromide) solution (from a 5 mg/mL stock solution) was measured to each well. After the incubation at 37 °C for 4 h, 100 μL of sodium dodecyl sulfate (SDS) solution (10% SDS in 0.01 M HCl) was added to each well to dissolve the formazan crystals and the samples were further incubated at 37 °C overnight. Cell growth was calculated by measuring the OD at 540 nm (ref. 630 nm) with a Multiscan EX ELISA reader. The cytotoxicity was expressed as IC50 values, defined as the inhibitory dose that reduces the growth of the cells exposed to the tested compounds by 50%.

E. coli AG100 A [4] = assay: Minimum inhibitory concentration (broth microdilution, CLSI); type: cell-based, Escherichia coli; conditions: 18 h
Experimental: Wild-type E. coli K-12 AG100 strain (argE3 thi-1 rpsL xyl mtl Δ(gal-uvrB) supE44) expressing the AcrAB TolC EP at its basal level and its AcrAB-TolC deleted mutant E. coli K-12 AG100 A strain. The strains were donated by Prof. Dr. Hiroshi Nikaido (Department of Molecular and Cell Biology and Chemistry, University of California, Berkeley, CA, USA).
as §5

S. aureus 272123 (MRSA) [5] = assay: Real-time ethidium bromide accumulation (efflux pump inhibition); type: cell-based, Staphylococcus aureus; conditions: compounds at ¼ MIC (3 at 12.5 µM), VER at 25 µM, EB 1 μg/mL, minute 30
Experimental: as §1, §2, §3

S. aureus ATCC 25923 = assay: as above; type: cell-based, Staphylococcus aureus; conditions: compounds at ¼ MIC, EB 1 μg/mL, minute 30
Experimental: as §1, §2, §3

[6] = test system: Staphylococcus aureus ATCC 25923; assay: Minimum inhibitory concentration (broth microdilution, CLSI); type: cell-based; conditions: S. aureus ATCC 25923, 18 h, visual inspection
Experimental: as §4, §5

E. coli AG100 [7] = assay: as above; type: cell-based, Escherichia coli
Experimental: The strains were donated by Prof. Dr. Hiroshi Nikaido (Department of Molecular and Cell Biology and Chemistry, University of California, Berkeley, CA, USA).
as §5

[8] = test system: Chromobacterium violaceum 026; assay: as above; type: cell-based; conditions: C. violaceum 026
Experimental: (§6) The following bacterial strains were applied in the QS tests: C. violaceum 026 as sensor strain and E. cloacae 31298 isolated from clinical wound (used as N-acyl-homoserine lactone (AHL) producer); this strain induced pigment production by C. violaceum and is a model strain to study QS interactions.
as §5

[9] = test system: Enterobacter cloacae 31298; assay: as above; type: cell-based; conditions: E. cloacae 31298
Experimental: as §6, §5

E. coli AG100 A [10] = assay: Real-time ethidium bromide accumulation (efflux pump inhibition); type: cell-based, Escherichia coli; conditions: compounds at ¼ MIC, EB 1 μg/mL, minute 30
Experimental: as §1, §2, §3

S. aureus MRSA 272123 = assay: Resistance modulation (MIC reduction) assay with CIP and TET; type: cell-based, Staphylococcus aureus; conditions: antibiotic alone
Experimental: (§7) The resistance modulation effects of compounds with ciprofloxacin (CIP) and tetracycline (TET) antibiotics were evaluated by the MIC reduction method on the Gram-negative E. coli AG100, AG100 A, and the Gram-positive S. aureus ATCC and MRSA strains.
(§8) The chemosensitizing activity of benzoxazole-type ligands and their metal complexes was determined based on the MIC values of the antibiotics in the presence of sub-inhibitory concentrations of the compounds (¼ MIC) in both Gram-negative and Gram-positive strains. The MICs were determined in strains by the two-fold broth microdilution method in 96-well plates, using serial dilutions of TET and CIP. The first four rows contained two-fold dilutions of antibiotics, and combinations of the TET and CIP and tested compounds were transferred into the last four rows. The 10^−4 dilution of an overnight bacterial culture in 50 μL of MHB was then measured to each well, except for the medium control wells. The plates were kept at 37 °C for 18 h. MIC values of antibiotics and their combination with tested compounds were detected by visual inspection.

E. coli AG100 [11] = assay: as above; type: cell-based, Escherichia coli; conditions: antibiotic alone
Experimental: as §7, §8

[12] = E. coli AG100 A (AcrAB-TolC deleted), visual inspection
[13] = E. coli AG100, 18 h, visual inspection, read-out: MIC
[14] = Staphylococcus aureus, ATCC25923

| SMILES | Relative fluorescence index (RFI) (E. coli AG100 [1]) | MIC (S. aureus 272123 (MRSA) [2]) [µM] | Cytotoxic effect (class in words) ([3]; 24 h) | IC50 ([3]; 24 h) [µM] | MIC (E. coli AG100 A [4]; [12]) [µM] | Relative fluorescence index (RFI) (S. aureus 272123 (MRSA) [5]) | Relative fluorescence index (RFI) (S. aureus ATCC 25923) | MIC [6] [µM] | MIC (E. coli AG100 [7]; [13]) [µM] | MIC [8] [µM] | MIC [9] [µM] | Relative fluorescence index (RFI) (E. coli AG100 A [10]) | MIC (S. aureus 272123 (MRSA) [2]; Staphylococcus aureus) [µM] | IC50 ([3]; Homo sapiens, MRC5, 24 h) [µM] | MIC (E. coli AG100 A [4]; Escherichia coli, AG100A) [µM] | MIC [6, 14] [µM] | MIC ([8]; Chromobacterium violaceum) [µM] | MIC ([9]; Enterobacter cloacae) [µM] | also measured |
| --- | --- | --- | --- | --- | --- | --- | --- | --- | --- | --- | --- | --- | --- | --- | --- | --- | --- | --- | --- |
| [O-]C(=Cc1nc2ccccc2o1)C(F)F.[O-]C(=Cc1nc2ccccc2o1)C(F)F.[Zn+2] [Compound 6] | 0.08 | 12.5 | strong (IC50: 0–30) | 4.72 | 12.5 | −0.02 | 0.08 | 25 | 50 | >100 | >100 | −0.15 |  |  |  |  |  |  |  |
| O=C(O)c1cn(C2CC2)c2cc(N3CCNCC3)c(F)cc2c1=O [CIP, ciprofloxacin, reference compound] |  |  |  |  |  |  |  |  |  |  |  |  |  |  |  |  |  |  | MIC of antibiotic in the absence of the compounds (S. aureus MRSA 272123): 12.5 µM; MIC of antibiotic in the absence of the compounds (E. coli AG100 [11]): 0.016 µM |
| [O-]C(=Cc1nc2ccccc2o1)C(F)(F)F.[O-]C(=Cc1nc2ccccc2o1)C(F)(F)F.[Pd+2] [Compound 10] | −0.06 | >100 | weak (IC50: 61–100) | 89.1 | >100 | 0 | 0 | >100 | >100 | >100 | >100 | 0 |  |  |  |  |  |  |  |
| O=C(Cc1nc2ccccc2o1)C(F)(F)Cl [Compound 2] | 0.17 | 3.125 (≈ 0.768 µg/mL) | no (IC50 > 100 µM) |  |  | −0.07 | −0.07 |  |  |  |  | −0.01 | 3.12 (≈ 0.768 µg/mL) | > 100 | 25 (≈ 6.14 µg/mL) | 12.5 (≈ 3.07 µg/mL) | > 100 | > 100 | MIC (E. coli AG100 [7]; Escherichia coli, E. coli AG100, 18 h, visual inspection, read-out: MIC): 50 µM (≈ 12.3 µg/mL) |
| O=C(Cc1nc2ccccc2o1)C(F)(F)F [Compound 1, 2-trifluoroacetonylbenzoxazole] | −0.35 | 12.5 (≈ 2.86 µg/mL) | no (IC50 > 100 µM) |  |  | −0.14 | −0.11 |  |  |  |  | 0 | 12.5 (≈ 2.86 µg/mL) | > 100 | 50 (≈ 11.5 µg/mL) | 25 (≈ 5.73 µg/mL) | > 100 | > 100 | MIC (E. coli AG100 [7]; Escherichia coli, AG100, 18 h): 50 µM (≈ 11.5 µg/mL) |
